The experiment has as its target MK-2 (Homo sapiens, UniProt P49137). Kind of experiment: Determination of MK-2 IC50 (phosphorylation of HSP-peptide, anion exchange resin capture assay). In kind it is biochemical. As to conditions: additional values are replicate IC50 experiments; mixture of stereoisomers implied unless otherwise noted; read-out: MK-2 Avg. IC50.

The results in this text go back to patent US20050137220A1 (Pharmacia Corporation, priority 2003, published 2005).

Several values for one entry are separate records, joined by “and”; a condition that tells them apart may be missing. Identical values can stand only once. Counter-ions that a name gives are not always drawn. Where only a bound is given, the exact number is not on record here.

Chain of MK-2 (P49137 whole entry, species assumed): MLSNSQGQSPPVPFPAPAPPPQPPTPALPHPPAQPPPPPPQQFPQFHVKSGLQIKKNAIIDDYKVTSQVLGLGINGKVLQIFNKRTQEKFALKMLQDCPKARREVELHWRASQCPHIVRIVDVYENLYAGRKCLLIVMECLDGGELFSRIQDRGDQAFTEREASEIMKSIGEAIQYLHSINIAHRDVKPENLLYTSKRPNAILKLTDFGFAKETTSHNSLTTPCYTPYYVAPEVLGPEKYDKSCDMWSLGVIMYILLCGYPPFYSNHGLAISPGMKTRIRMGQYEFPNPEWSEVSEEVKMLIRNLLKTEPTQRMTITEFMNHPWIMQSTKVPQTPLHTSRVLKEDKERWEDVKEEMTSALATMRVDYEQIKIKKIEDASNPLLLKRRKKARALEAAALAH

Regarding `O=C1NCCc2c1[nH]c1ccc(F)cc21` [Example 261, 1H-Pyrido[3,4-b]indol-1-one,6-fluoro-2,3,4,9-tetrahydro- or 6-fluoro-2,3,4,9-tetrahydro-1H-beta-carbolin-1-one or 1h-Pyrido[3,4-B]Indol-1-One,6-Fluoro-2,3,4,9-Tetrahydro-], the 50% inhibitory concentration (IC50) is more than 200 µM. The figure for `COC(=O)C1c2[nH]c3ccc(OC)cc3c2CCN1C(=O)C(F)(F)F` (stereo not drawn) [Example 207, methyl 6-methoxy-2-(trifluoroacetyl)-2,3,4,9-tetrahydro-1H-beta-carboline-1-carboxylate] is more than 200 µM. With `ON=C1CCCc2c1[nH]c1ccc(C(F)(F)F)cc21` [Example 154, 6-(trifluoromethyl)-2,3,4,9-tetrahydro-1H-carbazol-1-one oxime] the figure was 156 µM. For the compound `CCOC(=O)CNC(=O)COc1ccc2[nH]c3c(c2c1)CCNC3C(=O)O` (stereo not drawn) [Example 155, 6-[2-(2-ethoxy-2-oxoethylamino)-2-oxoethoxy]-2,3,4,9-tetrahydro-1H-beta-carboline-1-carboxylic acid hydrochloride], the IC50 was determined as 164 µM. With `O=C(O)C1(Cc2ccc3c(c2)OCO3)NCCc2c1[nH]c1ccccc21` (stereo not drawn) [Example 204, 1-[(benzodioxolan-5-yl)methyl]-2,3,4,9-tetrahydro-1H-beta-carboline-1-carboxylic acid] the figure was more than 200 µM.

In the case of `COC(=O)c1ccc2[nH]c3c(c2c1)CCNC3=O` [Example 270, methyl 1-oxo-2,3,4,9-tetrahydro-1H-beta-carboline-6-carboxylate], the IC50 is more than 200 µM. As to `O=C(O)COc1ccc2[nH]c3c(c2c1)CCNC3C(=O)O` (stereo not drawn) [Example 98, 6-(carboxymethoxy)-2,3,4,9-tetrahydro-1H-beta-carbolin-1-carboxylic acid], the 50% inhibitory concentration (IC50) was 35.5 µM. With `CN1CCc2c([nH]c3ccc(OCc4ccccc4)cc23)C1C(=O)O` (stereo not drawn) [Example 36, sodium 6-(benzyloxy)-2-methyl-2,3,4,9-tetrahydro-1H-beta-carboline-1-carboxylate] the figure was 4.83 µM and 4.96 µM. With `COc1cc2[nH]c3c(c2cc1OC)CCCC3=NO` [Example 131, 6,7-dimethoxy-2,3,4,9-tetrahydro-1H-carbazol-1-one oxime] the figure was 100 µM; with `COC(=O)CCC1Cc2c([nH]c3ccc(OC)cc23)C(=O)N1` (stereo not drawn) [Example 147, methyl 3-(6-methoxy-1-oxo-2,3,4,9-tetrahydro-1H-beta-carbolin-3-yl)propanoate], 136 µM; with `COC(=O)[C@@H]1Cc2c([nH]c3ccccc23)C(C)(C(=O)O)N1` (mixture of isomers) [Example 228, 3-(methoxycarbonyl)-1-methyl-2,3,4,9-tetrahydro-1H-beta-carboline-1-carboxylic acid], more than 200 µM. Take `CCCC1Cc2c([nH]c3ccc(OC)cc23)C(C(=O)O)N1` (stereo not drawn) [Example 148, 6-methoxy-3-propyl-2,3,4,9-tetrahydro-1H-beta-carboline-1-carboxylic acid]: the IC50 is 137 µM.

As to `O=C1NCCc2c1[nH]c1ccc(Br)cc21` [Example 117, 6-bromo-2,3,4,9-tetrahydro-1H-beta-carbolin-1-one], the IC50 stood at 69.6 µM. Take `COC(=O)C1NC(CO)Cc2c1[nH]c1ccc(OC)cc21` (stereo not drawn) [Example 184, methyl 3-(hydroxymethyl)-6-methoxy-2,3,4,9-tetrahydro-1H-beta-carboline-1-carboxylate]: the concentration for half-maximal inhibition (IC50) was more than 200 µM. As for `COC(=O)C1(C)NCCc2c1[nH]c1ccccc21` (centres unmarked) [Example 212, 1h-Pyrido[3,4-B]Indole-1-Carboxylic Acid, 2,3,4,9-Tetrahydro-1-Methyl-,Methyl Ester], the IC50 was more than 200 µM. Take `COc1ccc2[nH]c3c(c2c1)C(c1ccccc1)CNC3C(=O)O` (stereo not drawn) [Example 233, 6-methoxy-4-phenyl-2,3,4,9-tetrahydro-1H-beta-carboline-1-carboxylic acid]: the IC50 was more than 200 µM. With `COc1ccc2[nH]c3c(c2c1)CCN1CCNC(=O)C31` (centres unmarked) [Example 192, 9-methoxy-3,4,6,7,12,12b-hexahydropyrazino[1′,2′:1,2]pyrido[3,4-b]indol-1(2H)-one] the figure was more than 200 µM. For `Cc1cccc2c3c([nH]c12)C(C(=O)O)NCC3` (stereo not drawn) [Example 215, 8-methyl-2,3,4,9-tetrahydro-1H-beta-carboline-1-carboxylic acid hydrochloride], the 50% inhibitory concentration (IC50) is more than 200 µM.

For the compound `O=C1NCCc2c1[nH]c1c(Cl)cccc21` [Example 262, 1H-Pyrido[3,4-b]indol-1-one,8-chloro-2,3,4,9-tetrahydro- or 8-chloro-2,3,4,9-tetrahydro-1H-beta-carbolin-1-one], the IC50 was more than 200 µM. With `COc1ccc2[nH]c3c(c2c1)C(c1ccccc1)CNC3C(=O)O` (stereo not drawn) [Example 210, 6-methoxy-4-phenyl-2,3,4,9-tetrahydro-1H-beta-carboline-1-carboxylic acid hydrochloride], the IC50 was more than 200 µM. Regarding `COc1ccc2c3c([nH]c2c1)C(C(=O)O)NCC3` (stereo not drawn) [Example 217, 7-methoxy-2,3,4,9-tetrahydro-1H-beta-carboline-1-carboxylic acid hydrochloride], the half-maximal inhibitory concentration (IC50) was more than 200 µM. With `COC1=C(C#N)Cc2c([nH]c3ccc(OC)cc23)C(=O)N1` [Example 269, 3,7-dimethoxy-1-oxo-1,2,5,10-tetrahydroazepino[3,4-b]indole-4-carbonitrile], the 50% inhibitory concentration (IC50) is more than 200 µM. With `O=C1NCCc2c1[nH]c1ccc(Cl)cc21` [Example 125, 1H-Pyrido[3,4-b]indol-1-one, 6-chloro-2,3,4,9-tetrahydro- or 6-chloro-2,3,4,9-tetrahydro-1H-beta-carbolin-1-one] the figure was 89.6 µM; with `COc1ccc2[nH]c3c(c2c1)C(Cc1ccc(CO)cc1)CNC3C(=O)O` (stereo not drawn) [Example 114, 4-[4-(hydroxymethyl)benzyl]-6-methoxy-2,3,4,9-tetrahydro-1H-beta-carboline-1-carboxylic acid], 61.4 µM; with `COc1ccc2[nH]c3c(c2c1)C(Cc1cccc(C(F)(F)F)c1)CNC3C(=O)O` (stereo not drawn) [Example 118, 6-methoxy-4-[3-(trifluoromethyl)benzyl]-2,3,4,9-tetrahydro-1H-beta-carboline-1-carboxylic acid], 70.9 µM. The figure for `COC(=O)CC1CC2(C(=O)OC)c3[nH]c4ccccc4c3CCN2C1=O` (centres unmarked) [Example 213, 1h-Indolizino[8,7-B]Indole-2-Acetic Acid, 2,3,5,6,11,11b-(Methoxycarbonyl)-3-Oxo-, Methyl Ester] is more than 200 µM. The figure for `COC(=O)C1c2[nH]c3ccc(OC)cc3c2CCN1CCNC(=O)OC(C)(C)C` (stereo not drawn) [Example 195, methyl 2-{2-[(tert-butoxycarbonyl)amino]ethyl}-6-methoxy-2,3,4,9-tetrahydro-1H-beta-carboline-1-carboxylate] is more than 200 µM. Turning to `O=C1NCCc2c1[nH]c1cccc(C(=O)N3CCOCC3)c21` [Example 251, 5-(morphoiln-4-ylcarbonyl)-2,3,4,9-tetrahydro-1H-beta-carbolin-1-one], the IC50 was more than 200 µM. With `COc1ccc2[nH]c3c(c2c1)CC(C(F)(F)F)NC3C(=O)O` (stereo not drawn) [Example 205, 6-methoxy-3-(trifluoromethyl)-2,3,4,9-tetrahydro-1H-beta-carboline-1-carboxylic acid] the figure was more than 200 µM; with `COC(=O)C1c2[nH]c3ccc(OC)cc3c2CCN1Cc1ccccc1` (stereo not drawn) [Example 168, methyl 2-benzyl-6-methoxy-2,3,4,9-tetrahydro-1H-beta-carboline-1-carboxylate], more than 200 µM.

Regarding `Cc1ccc2[nH]c3c(c2c1)CCNC3C(=O)O` (stereo not drawn) [Example 216, 6-methyl-2,3,4,9-tetrahydro-1H-beta-carboline-1-carboxylic acid hydrochloride], the IC50 was more than 200 µM. The figure for `COC(=O)c1cccc2[nH]c3c(c12)CCNC3C(=O)O` (stereo not drawn) [Example 238, 5-(methoxycarbonyl)-2,3,4,9-tetrahydro-1H-beta-carbolin-1-carboxylic acid hydrate] is more than 200 µM; for `CCOC(=O)c1cccc2c3c([nH]c12)CCNC3=O` [Example 96, ethyl 1-oxo-2,3,4,5-tetrahydro-1H-pyrido[4,3-b]indole-6-carboxylate] it is 34.5 µM; for `COC(=O)C1c2c(c3cc(OC)ccc3n2CO)CCN1C` (stereo not drawn) [Example 169, methyl 9-(hydroxymethyl)-6-methoxy-2-methyl-2,3,4,9-tetrahydro-1H-beta-carboline-1-carboxylate] it is more than 200 µM. With `COC(=O)C1c2[nH]c3ccc(O)cc3c2CCN1C` (stereo not drawn) [Example 174, methyl 6-hydroxy-2-methyl-2,3,4,9-tetrahydro-1H-beta-carboline-1-carboxylate], the 50% inhibitory concentration (IC50) is more than 200 µM. The figure for `COC(=O)c1cccc(COc2ccc3[nH]c4c(c3c2)CCNC4C(=O)O)c1` (stereo not drawn) [Example 159, 6-{[3-(methoxycarbonyl)benzyl]oxy}-2,3,4,9-tetrahydro-1H-beta-carboline-1-carboxylic acid hydrochloride] is 182 µM. `COc1ccc2[nH]c3c(c2c1)CCNC3(Cc1ccccc1)C(=O)O` (stereo not drawn) [Example 241, 1-benzyl-6-methoxy-2,3,4,9-tetrahydro-1H-beta-carboline-1-carboxylic acid hydrochloride]: the IC50 is more than 200 µM. The figure for `COc1ccc2c3c([nH]c2c1)C(Cc1ccc(OC)c(OC)c1OC)(C(=O)O)NCC3` (stereo not drawn) [Example 203, 7-methoxy-1-[(2,3,4-trimethoxyphenyl)methyl]-2,3,4,9-tetrahydro-1H-beta-carboline-1-carboxylic acid, acetate (1:1)] is more than 200 µM; for `CCOC(=O)C1Cc2c([nH]c3ccc(OC)cc23)C(C(=O)O)N1` (stereo not drawn) [Example 177, 3-(ethoxycarbonyl)-6-methoxy-2,3,4,9-tetrahydro-1H-beta-carboline-1-carboxylic acid] it is more than 200 µM; for `COc1ccc2[nH]c3c(c2c1)CCNC3CC#N` (stereo not drawn) [Example 231, (6-methoxy-2,3,4,9-tetrahydro-1H-beta-carbolin-1-yl)acetonitrile] it is more than 200 µM. Take `C=CCN1CCc2c([nH]c3ccc(OC)cc23)C1C(=O)O` (stereo not drawn) [Example 128, potassium 2-allyl-6-methoxy-2,3,4,9-tetrahydro-1H-beta-carboline-1-carboxylate]: the 50% inhibitory concentration (IC50) is 95.1 µM and 98.2 µM.
